Series [1] in a line: Parallel artificial membrane permeability assay (PAMPA-BBB). As to the method:
The ability of carbamate 20 to cross the BBB was assessed using a parallel artificial membrane permeability assay experiment. […] The parallel artificial membrane permeability assay (PAMPA) blood–brain barrier (BBB) experiments were conducted using the Pampa Explorer Kit (Pion Inc., Billerica, MA, USA) according to the protocol provided by the manufacturer. […] The PAMPA sandwich was assembled and allowed to incubate at room temperature for 4 h without stirring. The sandwich was then separated, and the UV-visible spectra were measured for both the donor and receiver wells with the microplate reader (Tecan Infinit M200).
A general note: The PAMPA barrier holds no transporters, so it reflects passive diffusion.

In series [2] the test system is mice. In words: Spontaneous alternation (Y maze), scopolamine-induced deficit. The class given is in vivo, NMRI mice. Particulars: 1 mg/kg IP 30 min before test, scopolamine 0.5 mg/kg SC. As to the method: Animals. Adult male NMRI mice (3 months old, weighing 35–40 g) from Janvier labs (Le Genest-Saint-Isle, France) were used to perform experiments. Mice were housed by ten in standard polycarbonate cages in standard controlled conditions (22 ± 2 °C, 55 ± 10% humidity) with a reversed 12 h light/dark cycle (light on at 7 pm). Food and water were available ad libitum in the home cage. All experiments were conducted (between 9 am and 3 pm) during the active–dark phase of the cycle and were in agreement with the European Directives and French law on animal experimentation (personal authorization n° 14–17 for MB and 14–60 for TF).
Spatial working memory. The antiamnesic activity of the tested compounds was evaluated by a reversal of deficit on spontaneous alternation behavior in the Y maze test. […] The Y maze made of grey plastic consisted of three equally-spaced arms (21-cm long, 7-cm wide with walls 15-cm high). The mouse was placed at the end of one of the arms and allowed to move freely through the maze during a 5 min session, while the sequence of arm entries was recorded by an observer. An arm entry was scored when all four feet crossed into the arm. An alternation was defined as entries into all three arms on a consecutive occasion.
Pharmacological treatments.

For series [3], the target named is AChE (Homo sapiens, UniProt P22303). Description: AChE inhibition, Ellman assay. The class given is biochemical. On the set-up: AChE from human erythrocytes; purchased Sigma Aldrich; host or cells: human erythrocytes (natural source). Conditions: (h)AChE IC50, Ellman assay; mean ± SEM of at least two experiments. As to the method:
All the synthesized phenolic derivatives and their carbamates were evaluated as potential inhibitors of human AChE, using the Ellman assay, as well as potential ligands for human 5-HT4R using a radioligand displacement assay.
The inhibitory capacity of compounds on AChE biological activity was evaluated through the use of the spectrometric method of Ellman. Acetylthiocholine iodide and 5,5-dithiobis-(2-nitrobenzoic) acid (DTNB) were purchased from Sigma Aldrich. AChE from human erythrocytes (buffered aqueous solution, ≥500 units/mg protein (BCA), Sigma Aldrich, St. Louis, MO, USA) was diluted in 20 mM HEPES buffer pH 8, 0.1% Triton X-100 such as to have enzyme solution with 0.25 unit/mL enzyme activity. In the procedure, 100 μL of 0.3 mM DTNB dissolved in a phosphate buffer with pH 7.4 were added into the 96-well plates followed by 50 μL of the test compound solution and 50 μL of enzyme (0.05 U final). After 5 min of preincubation at 25 °C, the reaction was then initiated by the injection of 50 μL of 10 mM acetylthiocholine iodide solution. […] Assays were performed with a blank containing all components except acetylthiocholine, in order to account for non-enzymatic reactions. The reaction slopes were compared and the percent inhibition due to the presence of test compounds was calculated by the following expression: 100 − (vi/v0 × 100), where vi is the rate calculated in the presence of inhibitor and v0 is the enzyme activity.

Series [4] has as its target T1, human 5-HT4R (Homo sapiens, UniProt Q13639).
T1 construct: purchased Eurofins HTS110M
In words: 5-HT4R radioligand displacement assay ([3H]-GR113808). The class given is binding. As to the method: All the synthesized phenolic derivatives and their carbamates were evaluated as potential inhibitors of human AChE, using the Ellman assay, as well as potential ligands for human 5-HT4R using a radioligand displacement assay. […].
For competition studies, 2.5 µg of proteins (5-HT4(b) membrane preparations, HTS110M, Eurofins. Eurofins’ 5-HT4(b) membrane preparations are crude membrane preparations made from their proprietary stable recombinant cell lines to ensure high-level of GPCR surface expression.) were incubated in duplicate at 25 °C for 60 min in the absence or the presence of 10^−6 or 10^−8M of each drug (9 was used as a reference standard) and 0.2 nM [^3H]-GR113808 (NET 1152, Perkin Elmer) in 25 mM Tris buffer (pH 7.4, 25 °C). At the end of the incubation, homogenates were filtered through Whatman GF/C filters (Alpha Biotech) pre-soaked with 0.5% polyethylenimine using a Brandel cell harvester. Filters were subsequently washed three times with 1 mL of ice-cold 25 mM Tris buffer (pH 7.4, 4 °C). Non-specific binding was evaluated in parallel in the presence of 30 µM serotonin. For some of these compounds, affinity constants were calculated from five-point inhibition curves using the GraphPad Prism 6 software and expressed as Ki ± SD.

This note sets out measurements from paper PMC6696315, “Inhibiting Acetylcholinesterase to Activate Pleiotropic Prodrugs with Therapeutic Interest in Alzheimer’s Disease” (Molecules, 2019).

For orientation: Papp means the rate of passage across a membrane or cell layer, normalised by area and donor concentration. Lower therefore signals slow passage. Broadly, the IC50 is the concentration that inhibits the measured activity by half.

T1 sequence (Q13639 whole entry): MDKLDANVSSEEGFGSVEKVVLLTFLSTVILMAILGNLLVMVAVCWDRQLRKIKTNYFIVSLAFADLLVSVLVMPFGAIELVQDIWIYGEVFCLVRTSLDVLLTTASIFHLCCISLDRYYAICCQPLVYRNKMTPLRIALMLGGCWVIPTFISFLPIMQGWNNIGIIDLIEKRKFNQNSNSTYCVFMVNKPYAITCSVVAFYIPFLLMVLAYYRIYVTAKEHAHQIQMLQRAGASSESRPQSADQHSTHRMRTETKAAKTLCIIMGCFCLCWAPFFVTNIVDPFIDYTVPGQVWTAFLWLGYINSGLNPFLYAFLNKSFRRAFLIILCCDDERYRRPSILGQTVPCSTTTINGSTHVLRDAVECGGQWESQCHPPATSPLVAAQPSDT
AChE, sequence (P22303 32-617 isoform P22303-2 limits assumed): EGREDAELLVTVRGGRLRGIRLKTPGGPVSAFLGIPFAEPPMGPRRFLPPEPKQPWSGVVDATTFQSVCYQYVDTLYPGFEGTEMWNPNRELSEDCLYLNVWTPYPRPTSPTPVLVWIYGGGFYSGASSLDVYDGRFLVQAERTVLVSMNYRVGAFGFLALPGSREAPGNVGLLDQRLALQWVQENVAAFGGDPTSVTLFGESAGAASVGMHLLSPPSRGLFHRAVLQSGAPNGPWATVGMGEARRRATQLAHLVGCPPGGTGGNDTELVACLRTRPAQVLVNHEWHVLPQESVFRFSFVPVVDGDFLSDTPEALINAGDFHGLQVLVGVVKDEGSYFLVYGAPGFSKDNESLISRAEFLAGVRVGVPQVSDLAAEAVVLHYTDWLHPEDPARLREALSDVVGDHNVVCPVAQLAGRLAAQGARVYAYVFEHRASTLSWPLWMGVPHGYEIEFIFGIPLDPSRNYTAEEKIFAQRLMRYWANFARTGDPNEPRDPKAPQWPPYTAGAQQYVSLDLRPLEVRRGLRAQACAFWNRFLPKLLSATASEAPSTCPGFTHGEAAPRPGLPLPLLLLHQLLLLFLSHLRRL

Consider `CCN(C)C(=O)Oc1cccc(CN2CCC(CCC(=O)c3cc(Cl)c(N)cc3OC)CC2)c1.O=C(O)/C=C/C(=O)O` [Compound 20, [3-[[4-[3-(4-Amino-5-chloro-2-methoxyphenyl)-3-oxopropyl]-1-piperidyl]methyl]phenyl] N-ethyl-N-methyl-carbamate fumaric acid salt], for which, in series [1] (PAMPA effective permeability coefficient, pH 7.4, 4 h), the LogPe was −4.39. Besides, the Papp at 4 h, 100 μM in series [1] (PAMPA, pH 7.4) was 40.7 ×10⁻⁶ cm/s. Besides, the “brain penetration (BBB crossing)” value in series [1] (classification from PAMPA) was “good brain penetration”. The “percentage of spontaneous alternation” value in series [2] is reported as “significantly different from the value of the chance level”. Further, in series [3], the half-inhibitory concentration (IC50) amounted to 6.07 ± 0.404 µM. Further, in series [4] (10^−8 M), the “(h)5-HT4R % Inhibition at 10^−8 M” value was 16%. The 5-HT4R affinity entry in series [4] (result in words) is on record as “devoid of any activity towards 5-HT4R”.
